In ChEMBL document CHEMBL3507680, “University of Dundee, Gates Library screen for HepG2 cell viability”:

experiment: Human HepG2 cell viability assay in 384 well format; assay type: toxicity, cell-based; parameters: dose 125 nL, time 70.5 hour; cytotoxicity at 70.5 h: concentration not given beside the values; settings: HepG2 cells, read-out: Inhibition

| Compound | cytotoxicity at 70.5 h [%] |
| --- | --- |
| CN(C)C(=O)[C@@H]1C[C@@H]2CCN(C3CCOCC3)C[C@@H]2O1 | 12.2 |
| CN(C)C(=O)c1cc2ncc(C(=O)NC3CC3)cc2n1C | -1.06 |
| Cn1ncc2c1NC(=O)CSC2c1ccc2c(c1)OCO2 (stereo not given) | 10.3 |
| Cc1noc(CN2CCN(c3cncc(Cl)n3)CC2)n1 | -4.58 |
| Cc1cnc(CN2CCCC(c3cc(C)[nH]n3)C2)cn1 (stereo not given) | 15.7 |
| COc1cc(CNC(=O)NCCCF)cc(Br)c1OC | -2.35 |
| COCC1CN(S(C)(=O)=O)Cc2ncn(CC3CC3)c21 (stereo not given) | -6.83 |
| C[C@@H]1CN(CC(C)(C)N2CCCCC2)C[C@@]1(O)C1CC1 | -1.88 |
| Cc1ccc(OC2(C(=O)O)CCN(C(=O)c3ccccc3F)CC2)cn1 | -3.34 |
| Cc1cnn(C2(C(=O)O)CCN(c3ccncc3F)CC2)c1 | -5.87 |
| Cc1ncc(C(=O)NCCNC(=O)Cc2cccc(F)c2)s1 | -6.72 |
| O=C(c1ccccc1)N1CCCC(Nc2ccc(F)cc2)C1 (stereo not given) | -1.68 |
| CCCNC(=O)C1CCN(Cc2csc(C(C)C)n2)CC1 | 16.4 |
| O=C(Nc1ccccc1F)N(CCO)CCOCC(F)(F)F | -4.12 |
| COc1ccccc1-n1cc(C(=O)NCCCn2nc(C)nc2C)cn1 | -9.68 |
| Cc1ccc2c(c1)C1(CCNCC1)CN2C(=O)CN(C)C | 4.93 |
| Cc1ccc(OC(C)CNC(=O)c2c[nH]nn2)cc1 (stereo not given) | -7.76 |
| O=C(CSc1ccccc1)N1CCc2c(ncnc2N2CCOCC2)C1 | 0.558 |
| Cc1nn(CCO)c(C)c1CNCc1cccnc1N(C)C | -4.11 |
| NC(=O)COc1ccc(CNCc2cc(F)cc(F)c2)cc1 | -8.73 |
| CCOC(=O)CNC(=O)Cn1c(-c2ccoc2)nc(C)c1C | 3.16 |
| O=C(Cc1ccccc1)NCc1ccc(-c2ccccc2C(=O)O)cn1 | 1.3 |
| Cc1cccc(C2CCCCCN2C(=O)c2cn(CC(N)=O)nn2)c1 (stereo not given) | -6.65 |

| Compound | cytotoxicity at 70.5 h [%] |
| --- | --- |
| O=C(c1cccc(-n2cnnn2)c1)N1CCC2(CC1)OCCO2 | -7.02 |
| CN1CCN(Cc2nnc(C3CCN(S(C)(=O)=O)CC3)n2C)CC1 | -20.6 |
| CCOc1ccccc1CC(=O)N1C[C@H](C2CC2)[C@@H](N)C1 | -0.519 |
| CC(=O)Nc1nc(CN2CCn3c(C)nnc3C2)cs1 | -2.82 |
| Cc1cc(CN2CCC(CNC(=O)c3noc4c3CCCC4)C2)[nH]n1 (stereo not given) | 13.3 |
| Fc1cccc2c1CCC2NCc1ccc(N2CCOCC2)cc1 (stereo not given) | 1.27 |
| Cc1nn(CC(=O)Nc2cccc(F)c2)c(N)c1C#N | -5.02 |
| Cc1ccc(CNc2cc3[nH]c(O)nc3cc2C)cc1 | -19.5 |
| c1cc(CN2CCC(c3nnc4n3CCCCC4)CC2)c2c(c1)OCO2 | -5.9 |
| CCN1CCC(CNS(=O)(=O)N2CCc3ccccc3C2)C1 (stereo not given) | 6.73 |
| Cc1cncc(C(=O)N(c2ccc(F)cn2)C2CCOCC2)c1 | 5.37 |
| CC(c1ccc2c(c1)OCO2)N1Cc2nc(N(C)C)ncc2C1=O (stereo not given) | -0.989 |
| CCN(CC)CCn1ccnc1-c1[nH]cnc1C | 3.84 |
| Cc1nc(C2CCCN(C(=O)c3cc(C(C)(C)C)on3)C2)no1 (stereo not given) | -1.93 |
| CCS(=O)(=O)N1CCc2ccc(NC(=O)Nc3ccccc3C)cc21 | -11 |
| O=C(C1CC1)N1CC[C@H](c2nnc(-c3ccccc3F)o2)C1 | -7.55 |
| O=c1c2cnc(N3CCCCC3)nc2ccn1-c1ccccc1 | 19 |
| CN(CC1CCCCC1)C(=O)c1ccc(-n2ncc(C#N)c2N)cc1 | -5.32 |
| COCCNC(=O)CCNc1ccc(Cl)cn1 | -6.53 |
| CCC(=O)N1CCC(Cc2ccccc2-c2ccncc2)(C(=O)NC)C1 (stereo not given) | -7.46 |
| COCCSCC(=O)NCc1ccc(N(C)C)cc1 | -0.963 |
| CC(Cn1ccnc1)NC(=O)N1CCN(Cc2cccs2)CC1 (stereo not given) | 13.9 |
| C[C@H]1C(=O)NC[C@H]2CN(Cc3ccccc3)C[C@H]21 | -2.5 |

| Compound | cytotoxicity at 70.5 h [%] |
| --- | --- |
| O=C(NCc1ccc(C(=O)N2CCCC2)cc1)c1cn2c(n1)CNCC2 | -3.69 |
| NC(=O)Cn1cc(NC(=O)NCC2CCN(c3ccccc3)C2)cn1 (stereo not given) | -8.01 |
| COc1cccc(S(=O)(=O)N2CCn3cnc(COCC4CC4)c3C2)c1 | -10 |
| COc1cccc2ccc(CN3CCN(c4cccnc4)CC3)nc12 | 7.51 |
| O=C(CCCOc1ccccc1F)NCCCC(=O)Nc1cn[nH]c1 | -3.66 |
| Fc1cnc(N2CCC3(CC2)CN(Cc2ccccn2)CCO3)nc1 | 5.75 |
| CN1CCOCC12CCN(c1ccc(C#N)cc1)CC2 | -5.69 |
| CN1CC[C@H]2CN(C(=O)c3csc(Cc4ccccc4)n3)C[C@H]21 | -5.61 |
| O=C1[C@H]2CN(Cc3ccco3)C[C@H]2CN1c1cncnc1 | -5.56 |
| Cc1nn(C)c2cn(C(C)C(=O)NCc3cccnc3)nc12 (stereo not given) | -1.5 |
| NC(=O)c1ccc(OCCCN2CCC3(CC2)OCCCC3O)cc1 (stereo not given) | -1.53 |
| COc1ccccc1NC(=O)NCCCC(=O)Nc1cn[nH]c1 | 13.3 |
| Cc1ccc(NC(=O)CN[C@H](C(N)=O)C(C)C)cc1F | 13.9 |
| CCC(CO)NC(=O)Cc1ccc(NC(=O)CC2=CCCCC2)cc1 (stereo not given) | -3.34 |
| Cc1ccc(CCCC(=O)N2CC(=O)Nc3cccnc32)s1 | -11.1 |
| Nc1nc2c(c(N3CCSCC3)n1)CCN(Cc1ccccn1)CC2 | -2.53 |
| NC(=O)C1CN(c2ncnc3c2Cc2ccccc2OC3)CCO1 (stereo not given) | -3.79 |
| O=C(CCCC1CCCC1)NS(=O)(=O)CC1CC1 | -2.25 |
| COC(=O)c1ccc(N(C(=O)c2cc(Cl)ccn2)C(C)C)c(C)c1 | -2.71 |
| CC(O)CN1CCN(C(=O)c2cc3ccccc3[nH]c2=O)CC1 (stereo not given) | -11 |
| COC(=O)C1CCN(C(=O)Cn2ccc(-c3ccc(F)cc3)n2)CC1 | -8.67 |
| CC(=O)N1CCc2[nH]cnc2C12CCN(C(=O)Cc1cccs1)CC2 | -9.66 |
| Cc1nnc([C@@H]2CC[C@@H]3[C@@H](CCN3Cc3ccccn3)O2)o1 | 10.5 |

| Compound | cytotoxicity at 70.5 h [%] |
| --- | --- |
| CCC(C(=O)N1CCN(S(=O)(=O)N2CCCC2)CC1)n1cccn1 (stereo not given) | -3.42 |
| Cc1cc(C)n2ncc(CN3CCC(n4cc(CCO)nn4)CC3)c2n1 | -1.82 |
| Cc1ccoc1-c1nnc(CN2CCCC(Cn3cncn3)C2)o1 (stereo not given) | -6.83 |
| CSc1ncccc1C(=O)N(CCO)Cc1ccccc1 | -0.362 |
| Cc1nn(-c2ccccc2Cl)c(C)c1CCC(=O)O | 4.21 |
| CNC(=O)C1CN(Cc2c[nH]cn2)CCN(C2CCOCC2)C1 (stereo not given) | 14.9 |
| Cc1ccc(C)c(OC(C)C(=O)Nc2cccnc2)c1 (stereo not given) | -3.32 |
| CS(=O)(=O)NCc1cncc2c1CCN(C(=O)N1CCCC1)C2 | 11.1 |
| O=C(NCc1ccccc1)N1C[C@H]2CCN[C@H]2C1 | 26 |
| Cc1nnc2n1CCN(C(=O)c1cc(C)n(-c3cccnc3)c1C)C2 | -1.82 |
| CSCCC(=O)N1CCCCC1CCn1cccn1 (stereo not given) | -6.75 |
| Cc1cc(C)n(CC2CCCN2CCS(C)(=O)=O)n1 (stereo not given) | -9.56 |
| CCOC(=O)CN1CCC2(CCCN(CCOc3ccccc3)C2)C1 (stereo not given) | -16 |
| CC(C)N(C)Cc1cnc2n1CCN(Cc1ccc(F)cc1)C2 | -9.32 |
| Cc1ncc(CN2C[C@H]3C[C@H](OCc4ccccc4)C[C@H]3C2)cn1 | -6.93 |
| CC(C)=CCN1C[C@H]2CC[C@@H]1CN(CCC(=O)NCc1ccco1)C2 | 30.2 |
| CC(NCC(=O)N1CCc2sccc2C1)c1ccccc1F (stereo not given) | -15.8 |
| O=S(=O)(CCO)Cc1ccc(OCC(F)(F)F)cc1 | -9.29 |
| CC(C)(C)CCCC(=O)Nc1ccnn1C1CCS(=O)(=O)C1 (stereo not given) | -6.88 |
| CC(C)Oc1ccc(CNC(=O)NCc2ccncc2)cc1F | -10.8 |
| COc1ncccc1CNC(=O)c1c(C)oc(C)c1C | -8.16 |
| CC1CN(Cc2nc(Cc3ccccc3F)no2)CCN1C (stereo not given) | -2.74 |
| COc1cccc(OCCNS(C)(=O)=O)c1 | 1.43 |

| Compound | cytotoxicity at 70.5 h [%] |
| --- | --- |
| CCc1nccn1-c1cncc(C2CCCN2Cc2ccccn2)n1 (stereo not given) | -7.66 |
| CC(C)c1nn(C)c(N(C)C)c1CNCc1cccc2c1OCO2 | -3.25 |
| CNC(=O)c1cc2c(nc1NC(C)C)CCN(C(=O)NC(C)C)CC2 | -10.9 |
| O=C(N[C@@H]1CCN(c2nc3ccccc3o2)C[C@H]1O)c1cnccn1 | -9.1 |
| CC(C)n1ccnc1C1CCCN(c2cc(C(=O)NC3CC3)ccn2)C1 (stereo not given) | 12.2 |
| Cc1ccc(Oc2ncccc2CNS(=O)(=O)N2CCOCC2)cn1 | -4.6 |
| CCOCCNC(=O)C(CCSC)NC(=O)c1ccc2ccccc2n1 (stereo not given) | 5.06 |
| CN(C)CC(=O)N1CCC2(CC1)CN(c1ccsc1)C(=O)CO2 | 21 |
| CS(=O)(=O)N1CCC2(CC1)CC(CC(=O)NCC1CC1)c1ccccc12 (stereo not given) | 5.79 |
| O=C(c1cccnc1)N1CCCC1c1cc[nH]n1 (stereo not given) | 23.9 |
| CCC(Oc1ccc(N(C)S(C)(=O)=O)cc1)C(=O)NC (stereo not given) | -1.39 |
| CC(=O)c1ccccc1-c1cc(C(=O)O)cc(S(=O)(=O)NC(C)C)c1 | -14.9 |
| CC(CNC(=O)c1ccc(Cl)cc1F)N1CCCC1 (stereo not given) | -16.4 |
| O=C(Cc1c(F)cccc1Cl)NC1CCCCNC1=O (stereo not given) | -5.89 |
| Cc1cc2ccccc2n1CCC(=O)N1CCC2(CC1)CNC(=O)C2 | 3.32 |
| CNC(=O)c1cc2c(nc1N(C)C)CCN(S(=O)(=O)CC(C)C)CC2 | -12.2 |
| CC(Cn1cncn1)NC(=O)Nc1ccc(F)cc1OCC1CC1 (stereo not given) | -9.35 |
| N#Cc1cccc(CN(CC(=O)N2CCCC2)CC2CCCO2)c1 (stereo not given) | 0.804 |
| CSCC(=O)N1CCOC(c2nc(C(C)(C)C)n[nH]2)C1 (stereo not given) | -0.6 |
| O=C(Nc1cn[nH]c1)c1ccc(O)nc1 | 1.6 |
| Cc1ccc(N2CC[C@]3(O)CCN(CCN4CCCC4=O)C[C@@H]3C2)nn1 | 0.21 |
| Nc1cccnc1N1CCC(C(F)(F)F)CC1 | 14.9 |
| COCCCNC(=O)CN(C)Cc1ccc(F)cc1Cl | 9.16 |
